From patent US9169241B2, “Quinolinyloxyphenylsulfonamides” (Max-Planck-Gesellschaft Zur Forderung der Wissenschaften …, priority 2009, dated 2015)
Like-named read-outs stand apart in the source and are kept apart here.

Tests used:
U118 [1] = experiment: Cell vitality assay (ATP assay, CellTiter-Glo); type: cell-based; settings: U118, 72 h; Table IIa; read-out: IC50 ATP-Assay after 72 h U118
Procedure, shortened: (§1)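 Cells (1000/well) incubated 72 h with test compound, top dose 12.5 μM, twofold dilutions, DMSO as reference. Lysis reagent added, luminescence recorded; background from cell-free medium wells.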

SF126 = experiment: Cell vitality assay (ATP assay, CellTiter-Glo); type: cell-based; settings: Homo sapiens, SF-126; SF126, 72 h; Table IIa; read-out: IC50 ATP-Assay after 72 h SF126
Procedure, shortened: as §1

U118 [2] = experiment: Matrigel outgrowth assay/branching assay; type: cell-based; settings: Table Vb, read-out: Total branching inhibition in Matrigel U118
Procedure, shortened: (§2)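 Step one: Matrigel (3 mg/ml) is set for 1 h at 37° C. Step two: 5000 cells per well go on in medium with compound (0.78–3.125 μM) or DMSO. Step three: images at 48, 72 and 96 h are scored for complete loss of branching.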

indicated cell line = experiment: Wound healing migration assay (Table IV); type: cell-based; settings: compounds at 12.5, 6.25, 3.125 μM, 48 h-72 h
Procedure, shortened: (§3)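 Cells seeded at 150000/24 well, grown to monolayer overnight, scratched with a pipette tip, then treated with compound at 12.5, 6.25 or 3.125 μM versus DMSO. Stopped by crystal violet fixation at 48-72 h once control wounds closed; IC50 taken as 50% wound size between t0 and t48 or t72.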

viable cells in culture = experiment: Cell viability assay at 10 μM (CellTiter-Glo, Table VII); type: cell-based; settings: compound 10 μM, 72 h;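 note: graded A 0-20%; B 21-40%; C 41-60%; D over 60% viable cells relative to DMSO control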
Procedure, shortened: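 Viable cell number was measured with the CellTiter-Glo Luminescent Cell Viability Assay (Promega), following the manufacturer's protocol, which quantifies ATP as a marker of metabolically active cells. In 96-well plates, 1000 cells/well in 100 μl medium were exposed to compound at 10 μM, or to DMSO control, for 72 h. Values were calculated relative to DMSO-control ATP.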

Hs578T [3] = experiment: Cell vitality assay (ATP assay, CellTiter-Glo); type: cell-based; settings: Homo sapiens, Hs-578T, 72 h
Procedure, shortened: as §1

Hs578T [4] = experiment: Matrigel outgrowth assay/branching assay; type: cell-based; settings: Homo sapiens, Hs-578T; HS578T cell line; Table Ib; read-out: Total branching inhibition in Matrigel HS578T
Procedure, shortened: as §2

Hs578T [5] = experiment: Wound healing migration assay; type: cell-based; settings: Homo sapiens, Hs-578T; HS578T cell line; Table Ib
Procedure, shortened: as §3

[6] = Homo sapiens, C8161 cells, read-out: IC50 Wound healing Assay C8161
[7] = SF763 cells, read-out: IC50 Wound healing Assay SF763
[8] = Homo sapiens, HCT-116, HCT116 def, read-out: percentage (%) of viable cells HCT 116def
[9] = Homo sapiens, HCT-116, HCT116 wt, read-out: percentage (%) of viable cells HCT 116wt
[10] = Homo sapiens, HT-29, HT29, read-out: percentage (%) of viable cells HT29
[11] = Homo sapiens, NCI-H358, H358, read-out: percentage (%) of viable cells H358
[12] = Homo sapiens, NCI-H1650, H1650, read-out: percentage (%) of viable cells H1650
[13] = Homo sapiens, NCI-H1666, H1666, read-out: percentage (%) of viable cells H1666
[14] = Homo sapiens, NCI-H1975, H1975, read-out: percentage (%) of viable cells H1975
[15] = Homo sapiens, NCI-H1993, H1993, read-out: percentage (%) of viable cells H1993
[16] = Homo sapiens, A549, read-out: percentage (%) of viable cells A549
[17] = Homo sapiens, HCC827, read-out: percentage (%) of viable cells HCC827
[18] = Homo sapiens, SW480, read-out: percentage (%) of viable cells SW480
[19] = RKO, read-out: percentage (%) of viable cells RKO
[20] = HS578T cell line, Table Ib, read-out: IC50 ATP-Assay HS578T after 72 h
[21] = Hs578T, Table IIa, read-out: IC50 ATP-Assay after 72 h Hs578T

Row | SMILES | IC50 (U118 [1]) | IC50 (SF126) | melting point | IC50 (indicated cell line; [6]) | IC50 (indicated cell line; [7]) | viability at 10 µM (viable cells in culture; [8]) | viability at 10 µM (viable cells in culture; [9]) | viability at 10 µM (viable cells in culture; [10]) | viability at 10 µM (viable cells in culture; [11]) | viability at 10 µM (viable cells in culture; [12]) | viability at 10 µM (viable cells in culture; [13]) | viability at 10 µM (viable cells in culture; [14]) | viability at 10 µM (viable cells in culture; [15]) | viability at 10 µM (viable cells in culture; [16]) | viability at 10 µM (viable cells in culture; [17]) | viability at 10 µM (viable cells in culture; [18]) | viability at 10 µM (viable cells in culture; [19]) | IC50 (Hs578T [3]; [20]) | IC50 (Hs578T [3]; [21]) | IC50 (Hs578T [4]) | other results
1 | COc1cc2c(Oc3ccc(NS(=O)(=O)c4cccc(Oc5ccccc5)c4)cc3F)ccnc2cc1OCCCN1CCN(C)CC1 [Example 14, N-(3-Fluoro-4-{6-methoxy-7-[3-(4-methyl-piperazin-1-yl)-propoxy]-quinolin-4-yloxy}-phenyl)-3-phenoxy-benzenesulfonamide] | 12.5 to 50 µM | ≤ 12.5 µM | 140 to 141 °C | 12.5 to 50 µM | 12.5 to 50 µM | 21 to 40% | 0 to 20% | 0 to 20% | 21 to 40% | 21 to 40% | 41 to 60% | 21 to 40% | 0 to 20% | 41 to 60% | 21 to 40% | 0 to 20% | 0 to 20% | – | – | – | IC100 (U118 [2]): ≤ 12.5 µM
2 | COc1cc2c(Oc3ccc(NS(=O)(=O)c4cc(C)ccc4F)cc3F)ccnc2cc1OCCCN1CCCC(C)C1 (stereo not shown) [Example 55] | 12.5 to 50 µM | ≤ 12.5 µM | 149 to 151 °C | 12.5 to 50 µM | 12.5 to 50 µM | 21 to 40% | 0 to 20% | 21 to 40% | 0 to 20% | 0 to 20% | 0 to 20% | > 60% | 0 to 20% | 21 to 40% | 41 to 60% | 21 to 40% | 41 to 60% | 12.5 to 50 µM | 12.5 to 50 µM | ≤ 10 µM | IC50 (Hs578T [5]): ≤ 12.5 µM
3 | COc1cc2c(Oc3ccc(NS(=O)(=O)c4ccc(C)c(F)c4)cc3F)ccnc2cc1OCCCN1CCCC(C)C1 (stereo not shown) [Example 56, 3-Fluoro-N-(3-fluoro-4-{6-methoxy-7-[3-(3-methyl-piperidin-1-yl)-propoxy]-quinolin-4-yloxy}-phenyl)-4-methyl-benzenesulfonamide] | 12.5 to 50 µM | ≤ 12.5 µM | 174 to 176 °C | ≤ 12.5 µM | 12.5 to 50 µM | 21 to 40% | 21 to 40% | 0 to 20% | 0 to 20% | 41 to 60% | 21 to 40% | 0 to 20% | 41 to 60% | > 60% | 21 to 40% | 0 to 20% | 21 to 40% | 12.5 to 50 µM | 12.5 to 50 µM | 10 to 25 µM | IC50 (Hs578T [5]): ≤ 12.5 µM
4 | COc1cc2c(Oc3ccc(NS(=O)(=O)c4cccc(Oc5ccccc5)c4)cc3F)ccnc2cc1OCCCN1CCCC(C)C1 (stereo not shown) [Example 59, N-(3-Fluoro-4-{6-methoxy-7-[3-(3-methyl-piperidin-1-yl)-propoxy]-quinolin-4-yloxy}-phenyl)-3-phenoxy-benzenesulfonamide] | 12.5 to 50 µM | 12.5 to 50 µM | 146 to 147 °C | 12.5 to 50 µM | ≤ 12.5 µM | 0 to 20% | 0 to 20% | 0 to 20% | 21 to 40% | > 60% | 41 to 60% | 21 to 40% | 0 to 20% | 21 to 40% | 21 to 40% | 0 to 20% | 0 to 20% | ≤ 12.5 µM | ≤ 12.5 µM | ≤ 10 µM | IC50 (Hs578T [5]): ≤ 12.5 µM
5 | COc1cc2c(Oc3ccc(NS(=O)(=O)c4ccc(Cl)s4)cc3F)ccnc2cc1OCCCN1CCCC(C)C1 (stereo not shown) [Example 63, 5-Chloro-thiophene-2-sulfonic acid (3-fluoro-4-{6-methoxy-7-[3-(3-methyl-piperidin-1-yl)-propoxy]-quinolin-4-yloxy}-phenyl)-amide] | ≤ 12.5 µM | 12.5 to 50 µM | 100 to 103 °C | 12.5 to 50 µM | ≤ 12.5 µM | 21 to 40% | 0 to 20% | 21 to 40% | 0 to 20% | 41 to 60% | 41 to 60% | 0 to 20% | 0 to 20% | 21 to 40% | 21 to 40% | 0 to 20% | > 60% | ≤ 12.5 µM | ≤ 12.5 µM | ≤ 10 µM | IC50 (Hs578T [5]): ≤ 12.5 µM
6 | COc1cc2c(Oc3ccc(NS(=O)(=O)c4ccccc4C(F)(F)F)cc3F)ccnc2cc1OCC(=O)N(C)C [Example 93, 2-{4-[2-Fluoro-4-(2-trifluoromethyl-benzenesulfonylamino)-phenoxy]-6-methoxy-quinolin-7-yloxy}-N,N-dimethyl-acetamide] | ≤ 12.5 µM | ≤ 12.5 µM | 134 to 135 °C | ≤ 12.5 µM | 12.5 to 50 µM | 21 to 40% | > 60% | 0 to 20% | 0 to 20% | 21 to 40% | 21 to 40% | 0 to 20% | 21 to 40% | > 60% | 21 to 40% | 0 to 20% | 0 to 20% | – | ≤ 12.5 µM | ≤ 10 µM | –
